Test results taken from ChEMBL document CHEMBL5247684, “Novel C-Linked Isoquinoline Amides as LRRK2 Inhibitors for Treating Parkinson's Disease” (ACS Med Chem Lett, 2023).
pIC50: −log10 of the molar value.

Biological target: Leucine-rich repeat serine/threonine-protein kinase 2 (Homo sapiens, UniProt Q5S007, G2019S)
Assay: Inhibition of GST20-tagged truncated human LRRK2 G2019S mutant using fluorescein labeled LRRKtide peptide as substrate by Lantha screen assay

Sequence of Leucine-rich repeat serine/threonine-protein kinase 2 (Q5S007 whole entry G2019S, the tested form may be a part): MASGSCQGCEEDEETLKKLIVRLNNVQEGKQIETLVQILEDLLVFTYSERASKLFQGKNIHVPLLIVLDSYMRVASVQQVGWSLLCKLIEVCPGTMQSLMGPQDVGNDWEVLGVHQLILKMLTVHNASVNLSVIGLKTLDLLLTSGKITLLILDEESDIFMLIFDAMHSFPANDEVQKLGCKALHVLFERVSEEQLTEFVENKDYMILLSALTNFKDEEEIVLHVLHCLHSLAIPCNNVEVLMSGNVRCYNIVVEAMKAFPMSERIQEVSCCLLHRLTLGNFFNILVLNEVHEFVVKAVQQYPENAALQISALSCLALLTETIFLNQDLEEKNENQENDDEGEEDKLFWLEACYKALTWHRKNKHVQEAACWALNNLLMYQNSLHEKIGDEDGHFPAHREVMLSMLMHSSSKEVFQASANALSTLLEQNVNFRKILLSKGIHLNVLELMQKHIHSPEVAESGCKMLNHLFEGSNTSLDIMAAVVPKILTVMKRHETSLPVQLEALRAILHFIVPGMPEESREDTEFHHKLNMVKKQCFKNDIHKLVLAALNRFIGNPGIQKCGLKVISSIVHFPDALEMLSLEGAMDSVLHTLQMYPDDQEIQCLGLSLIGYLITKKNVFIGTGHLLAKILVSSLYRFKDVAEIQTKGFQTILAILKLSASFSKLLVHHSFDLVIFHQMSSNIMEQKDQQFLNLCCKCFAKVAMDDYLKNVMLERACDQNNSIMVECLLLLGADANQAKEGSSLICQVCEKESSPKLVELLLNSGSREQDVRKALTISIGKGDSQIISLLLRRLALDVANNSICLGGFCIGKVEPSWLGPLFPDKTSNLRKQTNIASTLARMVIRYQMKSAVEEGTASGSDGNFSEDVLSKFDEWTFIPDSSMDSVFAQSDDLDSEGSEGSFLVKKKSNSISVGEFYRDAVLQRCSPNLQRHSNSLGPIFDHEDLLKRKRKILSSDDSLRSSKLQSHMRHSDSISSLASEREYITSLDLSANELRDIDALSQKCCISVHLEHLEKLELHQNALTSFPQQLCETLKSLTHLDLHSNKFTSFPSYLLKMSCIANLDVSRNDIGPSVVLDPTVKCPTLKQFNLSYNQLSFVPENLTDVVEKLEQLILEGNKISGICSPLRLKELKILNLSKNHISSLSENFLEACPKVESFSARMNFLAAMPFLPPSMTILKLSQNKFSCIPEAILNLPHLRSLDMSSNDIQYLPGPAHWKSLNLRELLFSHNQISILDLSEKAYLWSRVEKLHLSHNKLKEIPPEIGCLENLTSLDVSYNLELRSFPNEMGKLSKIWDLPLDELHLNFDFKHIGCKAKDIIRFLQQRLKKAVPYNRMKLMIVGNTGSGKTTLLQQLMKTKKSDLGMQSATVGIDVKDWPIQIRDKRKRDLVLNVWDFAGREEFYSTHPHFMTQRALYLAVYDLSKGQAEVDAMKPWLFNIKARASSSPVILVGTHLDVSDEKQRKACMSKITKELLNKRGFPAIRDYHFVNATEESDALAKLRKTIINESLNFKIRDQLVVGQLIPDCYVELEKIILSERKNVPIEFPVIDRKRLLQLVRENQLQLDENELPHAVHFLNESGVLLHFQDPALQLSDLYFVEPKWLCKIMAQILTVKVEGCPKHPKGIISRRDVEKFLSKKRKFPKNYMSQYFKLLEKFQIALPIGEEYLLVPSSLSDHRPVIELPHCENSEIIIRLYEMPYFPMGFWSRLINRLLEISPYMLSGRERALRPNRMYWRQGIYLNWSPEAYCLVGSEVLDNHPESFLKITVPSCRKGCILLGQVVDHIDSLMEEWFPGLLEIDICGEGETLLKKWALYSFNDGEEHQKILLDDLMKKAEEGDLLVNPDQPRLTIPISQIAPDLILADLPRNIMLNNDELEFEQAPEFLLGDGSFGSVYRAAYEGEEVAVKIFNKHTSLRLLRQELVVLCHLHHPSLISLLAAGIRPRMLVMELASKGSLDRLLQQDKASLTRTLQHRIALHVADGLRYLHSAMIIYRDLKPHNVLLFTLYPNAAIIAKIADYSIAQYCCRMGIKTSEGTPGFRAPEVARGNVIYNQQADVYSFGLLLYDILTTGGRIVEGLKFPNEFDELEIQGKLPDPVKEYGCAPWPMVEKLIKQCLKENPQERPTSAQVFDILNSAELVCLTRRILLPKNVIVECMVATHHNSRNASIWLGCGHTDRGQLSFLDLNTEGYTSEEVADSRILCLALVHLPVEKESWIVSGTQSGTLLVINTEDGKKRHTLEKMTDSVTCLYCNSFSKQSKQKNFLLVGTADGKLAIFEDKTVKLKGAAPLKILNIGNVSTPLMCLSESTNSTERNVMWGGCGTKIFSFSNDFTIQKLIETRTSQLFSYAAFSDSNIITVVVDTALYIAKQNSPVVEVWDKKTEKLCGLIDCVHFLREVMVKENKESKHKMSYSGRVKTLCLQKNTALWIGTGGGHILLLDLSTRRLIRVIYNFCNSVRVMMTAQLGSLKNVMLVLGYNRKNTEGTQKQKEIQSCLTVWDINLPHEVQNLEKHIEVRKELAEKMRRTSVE

- pIC50: 10.09
SMILES: C[C@@]1(N2CC[C@@H](c3cc4cc(NC(=O)C5CC56CC6)ncc4cc3Cl)[C@H](F)C2)COC[C@@H]1O (stereo partly specified)
